According to patent US10828272B2, “Means to facilitate food intake and food retention” (Chardon Group B.V., priority 2012, dated 2020):
Where a name gives a salt, the structure may show the parent alone.

Tested on: Wistar rats
Experiment: Food intake test (30 min, living mealworms) in non-deprived rats
Type: in vivo, rat
Details: for Dose needed for effect on food intake in this procedure (conclusion): into esophagus
Source text: In the following examples food intake tests were run with cohorts of 32 Wistar rats having food intake sessions in two groups of 16 rats in parallel. There were 8 rats per experimental group. The rats weighed in the range of 260-370 grams. Rats were acclimatized to the housing conditions in our laboratory for at least one week after arrival from the breeder. The rats were housed in pairs in Macrolon cages of 42×26 cm and 15 cm high, with standard food and water available ad libitum. The day-night cycle was not reversed (lights on at 7:00 AM, off 19:00 PM). Food intake tests were run in the same room wherein the rats were housed in the light period of the diurnal cycle of the rats. In a further period the rats were habituated to human handling and to the manner of presentation of mealworms in the food intake tests. Food intake was measured with rats without food deprivation. Food intake tests were done by placing the rats from their home cage individually into clean Macrolon (42×26×15 cm) cages without bedding. A weighed amount of at least 15-20 g living mealworms in a petri dish was placed in the middle of the cage and rats were allowed 30 minutes for eating mealworms. During the 30 minute test for food intake no drinking water was available. Injection treatments were administered at determined times before the food intake test. After drug administration the rats were returned to their home cage. Both rats of a pair in a living cage were assigned to the same treatment groups. Otherwise allocation of rats to experimental groups was done such that the treatments were equally and randomly spread over the duration of an experiment. The experimenter remained in the test room for the duration of an experiment. This allowed observation of general behavioural effects of the treatments. Abnormalities were recorded.
For drug administration commercially available stock solutions in vials were used: • lidocainehydrochloride 20 mg/ml injection fluid (Fresenius Kabi); procainamidehydrochloride 100 mg/ml injection fluid (Apotheek Haagse Ziekenhuizen); • ropivacainehydrochloride 7.5 mg/ml injection fluid (Fresenius Kabi); • metoclopramine (Sigma) was weighed and dissolved for use.
Drugs were administered in volumes of 1 ml/kg rat.
Vehicle: for local anesthetics the commercial physiological saline solutions for injection were used directly or the solution was diluted with distilled water. Alginate for a 2% viscous alginate solution was added 18 hours before use of the solution for injection. The solution was prepared to a viscous solution by allowing 18 hours of slow mechanical mixing.
For administration of the drug into the lumen of the esophagus the injection fluid was administered by entering a thick needle with rounded tip via, and into the esophagus just above the lower esophageal sphincter and retreating during injection to release the volume to be injected just behind the pharynx.
For administration into the stomach a similar 1 mm thick needle with a 2 mm tip and 60 mm length was introduced into the stomach via the esophagus as customary for oral administration in rats.
For administration subcutaneously (sc) the injection fluid was injected with a sharp thin needle under the skin in the neck.

CCN(CC)CC(=O)Nc1c(C)cccc1C [Lidocaine•HCl, lidocainehydrochloride]
Grams of mealworms eaten (AVG) (Example 1, 1 mg/kg into esophagus, 30 minutes before test): 14.85 grams | Grams of mealworms eaten (AVG) (Example 1, 3 mg/kg into esophagus, 30 minutes before test): 14.46 grams | Grams of mealworms eaten (AVG) (Example 1, 10 mg/kg into esophagus, 30 minutes before test): 14.54 grams | Grams of mealworms eaten (AVG) (Example 2, 20 mg/kg esophagus, 15 minutes before test): 16.91 grams | Grams of mealworms eaten (AVG) (Example 2, 20 mg/kg esophagus, 30 minutes before test): 17.14 grams | Grams of mealworms eaten (AVG) (Example 2, 20 mg/kg stomach, 30 minutes before test): 16.28 grams | Effect on food intake, esophagus compared with stomach (conclusion) (Example 2, 20 mg/kg, application in the esophagus versus into the stomach): more effective | Effect on food intake (conclusion) (Example 2, dose of 20 mg/kg): effective | Dose needed for effect on food intake in this procedure (conclusion) (30 minutes before test): above 10 mg/kg

CCN(CC)CCNC(=O)c1ccc(N)cc1 [Procainamide, procainamidehydrochloride]
Grams of mealworms eaten (AVG) (Example 3, 20 m/kg esophagus, 30 minutes before test): 12.11 grams | Grams of mealworms eaten (AVG) (Example 4, 100 m/kg esophagus, 30 minutes before test): 10.55 grams | Dose needed for effect on food intake in this procedure (conclusion) (30 minutes before test): higher than 20 mg/kg

CCCN1CCCC[C@H]1C(=O)Nc1c(C)cccc1C.Cl [Ropivacaine, ropivacainehydrochloride]
Grams of mealworms eaten (AVG) (Example 3, 1.25 mg/kg esophagus, 30 minutes before test): 13.40 grams | Grams of mealworms eaten (AVG) (Example 4, 3.75 mg/kg esophagus, 30 minutes before test): 12.08 grams | Grams of mealworms eaten (AVG) (Example 4, 7.5 mg/kg esophagus, 30 minutes before test): 13.58 grams | Effect on food intake (conclusion) (Example 4, 7.5 mg/kg in the esophagus): enhanced food intake | Effect on meal size (conclusion) (Example 5, 7.5 mg/kg and 11.25 mg/kg in the esophagus): effective in increasing meal size | Grams of mealworms eaten (AVG) (Example 5, 7.5 mg/kg esophagus): 13.24 grams | Grams of mealworms eaten (AVG) (Example 5, 7.5 mg/kg stomach): 10.72 grams | Grams of mealworms eaten (AVG) (Example 5, 11.25 mg/kg esophagus): 14.44 grams | Dose needed for effect on food intake in this procedure (conclusion) (30 minutes before test): higher than 1.25 mg/kg

CCN(CC)CCNC(=O)c1cc(Cl)c(N)cc1OC [metoclopramide]
Grams of mealworms eaten (AVG) (Example 6, 3 mg/kg sc, 30 minutes before test): 11.86 grams | Grams of mealworms eaten (AVG) (Example 6, 10 mg/kg sc, 30 minutes before test): 1.25 grams | Grams of mealworms eaten (AVG) (Example 6, 30 mg/kg sc, 30 minutes before test): 0.22 grams | Effect on food intake (conclusion) (Example 6, subcutaneously at doses above 3 mg/kg): inhibits food intake | Grams of mealworms eaten (AVG) (Example 7, 0.1 mg/kg sc, 30 minutes before test): 13.51 grams | Grams of mealworms eaten (AVG) (Example 7, 0.3 mg/kg sc, 30 minutes before test): 12.23 grams | Grams of mealworms eaten (AVG) (Example 7, 1 mg/kg sc, 30 minutes before test): 15.76 grams | Effect on food intake (conclusion) (Example 7, 0.1 and 0.3 mg/kg subcutaneously): ineffective | Effect on food intake (conclusion) (Example 7, subcutaneous injection of 1 mg/kg): increases food intake
